This test addresses Elongin-B/Elongin-C/von Hippel-Lindau disease tumor suppressor (Homo sapiens, UniProt P40337+Q15370+Q15369). Kind of test: Displacement of FAM-DEALAHyp-YIPD from 6xHis-tagged VHL (1 to 213)/elongins-B/elonginC (unknown origin) expressed in Escherichia coli BL21 after 1 min by fluorescence polarization assay. (In fluorescence polarisation assays a small probe gives low polarisation when free and higher when bound to something large.)

From BindingDB's records for doi:10.1016/j.bmcl.2014.03.095 (University of Utah, 2014) come the findings set out here.

The structures appear in SMILES notation.

Chain of Elongin-B/Elongin-C/von Hippel-Lindau disease tumor suppressor (P40337 whole entry, looked up): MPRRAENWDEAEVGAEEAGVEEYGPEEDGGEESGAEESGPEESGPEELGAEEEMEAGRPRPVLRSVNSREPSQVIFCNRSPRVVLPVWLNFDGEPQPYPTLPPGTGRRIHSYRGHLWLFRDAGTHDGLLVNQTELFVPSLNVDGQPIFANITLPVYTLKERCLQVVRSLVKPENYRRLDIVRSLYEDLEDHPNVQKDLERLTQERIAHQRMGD
Chain of Elongin-B/Elongin-C/von Hippel-Lindau disease tumor suppressor (Q15369 whole entry, looked up): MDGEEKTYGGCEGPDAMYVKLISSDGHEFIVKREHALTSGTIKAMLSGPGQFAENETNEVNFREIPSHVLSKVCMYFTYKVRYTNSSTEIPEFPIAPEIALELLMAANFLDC
Chain of Elongin-B/Elongin-C/von Hippel-Lindau disease tumor suppressor (Q15370 whole entry, looked up): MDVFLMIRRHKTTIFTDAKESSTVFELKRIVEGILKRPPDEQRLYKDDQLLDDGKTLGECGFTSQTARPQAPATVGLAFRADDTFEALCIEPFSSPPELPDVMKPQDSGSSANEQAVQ

By IC50 is commonly meant the point on the concentration scale where inhibition reaches its midpoint. A high value points to lower potency. On to `Cc1cc(CC(=O)N2C[C@H](O)C[C@H]2C(=O)NCc2cccc(Cl)c2)on1`, for which the IC50 is 117 µM.
